Laboratory results from patent US10988477B2 (Merck Patent GmbH, priority 2018, dated 2021).
pIC50, pKi: −log10 of the molar value.

How the values were obtained:
GCN2 kinase = GCN2 kinase (Homo sapiens, UniProt Q9P2K8); experiment: GCN2 enzyme inhibition assay (Transcreener ADP2 fluorescence polarization); format: biochemical; details: 280 μM ATP
Procedure, shortened: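 ADP formation read by Transcreener FP after a 1 h, 25 °C kinase reaction containing 280 μM ATP, 200 μM (RS)7 substrate and 4 nM GCN2, pH 7.5 Tris buffer. Compounds (0–8 μM final) were added 10 min before ATP. Percent inhibition gave IC50 and apparent Ki via tight-binding fit.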

[1] = molecular target: intracellular GCN2 (phosphorylation of the GCN2 substrate eIF2α) (Homo sapiens, UniProt Q9P2K8); experiment: GCN2 cellular inhibition assay (AlphaScreen SureFire P-eIF2α Ser51, borrelidin-treated U2OS cells); format: cell-based; details: biomarker assay, phosphorylated eIF2α Ser51 in borrelidin-treated U2OS cells
intracellular GCN2 (phosphorylation of the GCN2 substrate eIF2α), sequence (Q9P2K8 whole entry): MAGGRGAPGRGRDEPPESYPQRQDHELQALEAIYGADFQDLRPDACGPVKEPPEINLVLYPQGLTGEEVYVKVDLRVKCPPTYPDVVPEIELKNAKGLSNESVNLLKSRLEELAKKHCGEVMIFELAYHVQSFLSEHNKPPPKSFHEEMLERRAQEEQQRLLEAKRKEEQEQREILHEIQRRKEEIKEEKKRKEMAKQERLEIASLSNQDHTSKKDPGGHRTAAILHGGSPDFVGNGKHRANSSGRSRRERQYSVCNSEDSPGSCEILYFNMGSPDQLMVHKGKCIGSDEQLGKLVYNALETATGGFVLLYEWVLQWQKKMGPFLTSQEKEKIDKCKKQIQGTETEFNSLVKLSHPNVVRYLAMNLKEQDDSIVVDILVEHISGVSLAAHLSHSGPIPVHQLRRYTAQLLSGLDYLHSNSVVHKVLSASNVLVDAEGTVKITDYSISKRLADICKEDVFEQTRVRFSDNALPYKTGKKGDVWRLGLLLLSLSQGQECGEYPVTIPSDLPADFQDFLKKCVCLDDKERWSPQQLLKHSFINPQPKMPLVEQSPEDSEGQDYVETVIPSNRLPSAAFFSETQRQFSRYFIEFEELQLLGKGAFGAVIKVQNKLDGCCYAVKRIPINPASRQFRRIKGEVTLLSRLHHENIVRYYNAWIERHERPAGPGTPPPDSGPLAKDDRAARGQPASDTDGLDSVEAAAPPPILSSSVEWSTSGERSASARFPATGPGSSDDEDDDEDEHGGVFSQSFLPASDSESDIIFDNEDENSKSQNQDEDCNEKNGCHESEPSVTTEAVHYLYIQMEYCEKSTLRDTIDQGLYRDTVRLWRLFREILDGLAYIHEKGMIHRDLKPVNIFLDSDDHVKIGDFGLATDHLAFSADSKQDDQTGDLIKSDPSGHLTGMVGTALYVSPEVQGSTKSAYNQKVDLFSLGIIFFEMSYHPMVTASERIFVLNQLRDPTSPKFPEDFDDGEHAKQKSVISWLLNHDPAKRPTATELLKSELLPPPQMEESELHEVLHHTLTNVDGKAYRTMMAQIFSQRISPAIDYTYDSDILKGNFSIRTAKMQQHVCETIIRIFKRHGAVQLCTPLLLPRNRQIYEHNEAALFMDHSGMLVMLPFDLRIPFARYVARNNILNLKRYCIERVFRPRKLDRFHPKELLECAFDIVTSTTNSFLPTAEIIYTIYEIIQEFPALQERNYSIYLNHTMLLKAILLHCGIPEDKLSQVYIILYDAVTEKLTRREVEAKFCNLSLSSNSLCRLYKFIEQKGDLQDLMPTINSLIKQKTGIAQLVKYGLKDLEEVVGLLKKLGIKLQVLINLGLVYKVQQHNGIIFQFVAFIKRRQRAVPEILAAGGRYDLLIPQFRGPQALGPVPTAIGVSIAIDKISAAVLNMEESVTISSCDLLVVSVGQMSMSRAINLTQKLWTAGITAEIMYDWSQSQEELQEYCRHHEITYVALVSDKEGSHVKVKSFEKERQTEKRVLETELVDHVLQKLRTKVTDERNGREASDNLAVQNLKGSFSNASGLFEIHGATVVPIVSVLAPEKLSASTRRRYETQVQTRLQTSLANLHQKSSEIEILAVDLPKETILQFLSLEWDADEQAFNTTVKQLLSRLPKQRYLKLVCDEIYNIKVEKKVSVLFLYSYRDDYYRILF
Procedure, shortened: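 U2OS cells adhered overnight, then treated with compounds (4-fold serial dilutions from 40 μM final) plus borrelidin 10 μM final for 1 h at 37 °C. Lysate eIF2α Ser51 phosphorylation measured by AlphaScreen SureFire. Percent inhibition calculated relative to borrelidin-only wells.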

[2] = compounds of Formula II, 4 nM GCN2 kinase
[3] = Enzyme activity for compounds of Formula IV, Ki(app), 25° C.

GCN2 kinase, sequence (Q9P2K8 whole entry): as above

Row | Compound | pKi (GCN2 kinase; [2]) | pIC50 ([1]; compounds of Formula II) | pKi (GCN2 kinase; [3]) | pIC50 ([1]; compounds of Formula IV)
1 | CC1CCC(CNS(C)(=O)=O)CN1c1cc(-c2cnc3ccc(C(F)F)nn23)ncn1 (stereo not shown) [II-3, N-((1-(6-(6-(Difluoromethyl)imidazo[1,2-b]pyridazin-3-yl)pyrimidin-4-yl)-6-methylpiperidin-3-yl)methyl)methanesulfonamide] | > 8.00 | 5.30 to 6.30 | – | –
2 | CC1C(CNS(C)(=O)=O)C(F)(F)C(C)CN1c1cc(-c2cnc3ccc(C(F)F)nn23)ncn1 (stereo not shown) [II-475, N-((1-(6-(6-(Difluoromethyl)imidazo[1,2-b]pyridazin-3-yl)pyrimidin-4-yl)-4,4-difluoro-2,5-dimethylpiperidin-3-yl)methyl)methanesulfonamide] | 6.00 to 8.00 | > 6.30 | – | –
3 | CS(=N)(=O)CC1CCCN(c2cc(-c3cnc4ccc(C(F)F)nn34)ccn2)C1 (stereo not shown) [II-138, ((1-(4-(6-(Difluoromethyl)imidazo[1,2-b]pyridazin-3-yl)pyridin-2-yl)piperidin-3-yl)methyl)(imino)(methyl)-λ^6-sulfanone] | 6.00 to 8.00 | 5.30 to 6.30 | – | –
4 | OCC1CN(c2cc(-c3cnc4ccc(C(F)F)nn34)ncn2)CC2(CC2)O1 (stereo not shown) [II-359, (7-(6-(6-(Difluoromethyl)imidazo[1,2-b]pyridazin-3-yl)pyrimidin-4-yl)-4-oxa-7-azaspiro[2.5]octan-5-yl)methanol] | 6.00 to 8.00 | < 5.30 | – | –
5 | CC1CN(c2cc(-c3cnc4ccc(C(F)(F)F)nn34)ncn2)CC(CNS(C)(=O)=O)C1(F)F (stereo not shown) [II-294, N-((4,4-Difluoro-5-methyl-1-(6-(6-(trifluoromethyl)imidazo[1,2-b]pyridazin-3-yl)pyrimidin-4-yl)piperidin-3-yl)methyl)methanesulfonamide] | 6.00 to 8.00 | < 5.30 | – | –
6 | CC(=O)N1CCN(c2cccc(-c3cnc4ccc(C(F)F)nn34)c2)CC1 [II-150, 1-(4-(3-(6-(Difluoromethyl)imidazo[1,2-b]pyridazin-3-yl)phenyl)piperazin-1-yl)ethanone] | 6.00 to 8.00 | 5.30 to 6.30 | – | –
7 | O=S(=O)(CC1CC1)N[C@H]1CCCN(c2cc(-c3cnc4ccc(C(F)F)nn34)ncn2)C1 [II-420, (S)-1-Cyclopropyl-N-(1-(6-(6-(difluoromethyl)imidazo[1,2-b]pyridazin-3-yl)pyrimidin-4-yl)piperidin-3-yl)methanesulfonamide] | 6.00 to 8.00 | 5.30 to 6.30 | – | –
8 | CC1CC(F)(F)C(CNS(C)(=O)=O)CN1c1cc(-c2cnc3ccc(C(F)F)nn23)ncn1 (stereo not shown) [II-434, N-((1-(6-(6-(Difluoromethyl)imidazo[1,2-b]pyridazin-3-yl)pyrimidin-4-yl)-4,4-difluoro-6-methylpiperidin-3-yl)methyl)methanesulfonamide] | 6.00 to 8.00 | < 5.30 | – | –
9 | CS(=O)(=O)NC[C@H]1CCCN(c2cc(-c3cnc4ccc(C(F)F)nn34)cc(O)n2)C1 [II-111, (S)—N-((1-(4-(6-(Difluoromethyl)imidazo[1,2-b]pyridazin-3-yl)-6-oxo-1,6-dihydropyridin-2-yl)piperidin-3-yl)methyl)methanesulfonamide] | > 8.00 | 5.30 to 6.30 | – | –
10 | CS(=O)(=O)NCC1CN(c2cc(-c3cnc4ccc(C(F)F)nn34)ncn2)CC2(CC2)O1 (stereo not shown) [II-384, N-((7-(6-(6-(Difluoromethyl)imidazo[1,2-b]pyridazin-3-yl)pyrimidin-4-yl)-4-oxa-7-azaspiro[2.5]octan-5-yl)methyl)methanesulfonamide] | > 8.00 | > 6.30 | – | –
11 | CS(=O)(=O)N1CCCC(c2cc(-c3cnc4ccc(C(F)F)nn34)ncn2)CC1 (single isomer, unassigned) [II-275, 6-(Difluoromethyl)-3-(6-(1-(methylsulfonyl)azepan-4-yl)pyrimidin-4-yl)imidazo[1,2-b]pyridazine] | 6.00 to 8.00 | 5.30 to 6.30 | – | –
12 | CS(=N)(=O)C1CCCN(c2cc(-c3cnc4ccc(C(F)F)nn34)ncn2)C1 (stereo not shown) [II-522, (1-(6-(6-(Difluoromethyl)imidazo[1,2-b]pyridazin-3-yl)pyrimidin-4-yl)piperidin-3-yl)(imino)(methyl)-λ^6-sulfanone] | 6.00 to 8.00 | 5.30 to 6.30 | – | –
13 | CS(=O)(=O)N1CC2CCCN(c3cc(-c4cnc5ccc(C(F)F)nn45)ncn3)C2C1 (stereo not shown) [II-320, 6-(Difluoromethyl)-3-(6-(6-(methylsulfonyl)octahydro-1H-pyrrolo[3,4-b]pyridin-1-yl)pyrimidin-4-yl)imidazo[1,2-b]pyridazine] | 6.00 to 8.00 | < 5.30 | – | –
14 | CC1CC(N=S(C)(C)=O)CN(c2cc(-c3cnc4ccc(C(F)F)nn34)c(F)cn2)C1 (single isomer, unassigned) [II-723, ((1-(4-(6-(Difluoromethyl)imidazo[1,2-b]pyridazin-3-yl)-5-fluoropyridin-2-yl)-5-methylpiperidin-3-yl)imino)dimethyl-λ^6-sulfanone] | 6.00 to 8.00 | 5.30 to 6.30 | – | –
15 | OC[C@H]1CCCN(c2cc(-c3cnc4ccc(C(F)(F)F)nn34)ncn2)C1 [II-516, (S)-(1-(6-(6-(Trifluoromethyl)imidazo[1,2-b]pyridazin-3-yl)pyrimidin-4-yl)piperidin-3-yl)methanol] | 6.00 to 8.00 | 5.30 to 6.30 | – | –
16 | CC1(C)CN(c2cc(-c3cnc4ccc(C(F)F)nn34)ccn2)C[C@H](CNS(C)(=O)=O)O1 [II-148, (R)—N-((4-(4-(6-(Difluoromethyl)imidazo[1,2-b]pyridazin-3-yl)pyridin-2-yl)-6,6-dimethylmorpholin-2-yl)methyl)methanesulfonamide] | > 8.00 | > 6.30 | – | –
17 | CS(=O)(=O)N1CC2CCN(c3cc(-c4cnc5ccc(C(F)F)nn45)ncn3)CC21 (stereo not shown) [II-181, 6-(Difluoromethyl)-3-(6-(8-(methylsulfonyl)-3,8-diazabicyclo[4.2.0]octan-3-yl)pyrimidin-4-yl)imidazo[1,2-b]pyridazine] | < 6.00 | < 5.30 | – | –
18 | CS(=O)(=O)NCC1CCCN(c2cc(-c3cnc4ccc(C(F)F)nn34)c(F)cn2)C1 (stereo not shown) [II-729, N-((1-(4-(6-(Difluoromethyl)imidazo[1,2-b]pyridazin-3-yl)-5-fluoropyridin-2-yl)piperidin-3-yl)methyl)methanesulfonamide] | > 8.00 | 5.30 to 6.30 | – | –
19 | CS(=O)(=O)N1CCCN(c2cc(-c3cnc4ccc(C(F)F)nn34)ncn2)CC1 [II-22, 6-(Difluoromethyl)-3-(6-(4-(methylsulfonyl)-1,4-diazepan-1-yl)pyrimidin-4-yl)imidazo[1,2-b]pyridazine] | 6.00 to 8.00 | < 5.30 | – | –

Other lines, results leading:

Row | pKi (GCN2 kinase; [2]) | pIC50 ([1]; compounds of Formula II) | pKi (GCN2 kinase; [3]) | pIC50 ([1]; compounds of Formula IV) | Compound
20 | – | – | > 8.00 | < 5.30 | Cc1[nH]ncc1C1CCCN(c2ccnc(-c3cnc4cnc(C(F)(F)F)cn34)n2)C1 (single isomer, unassigned) [IV-470, 3-(4-(3-(5-Methyl-1H-pyrazol-4-yl)piperidin-1-yl)pyrimidin-2-yl)-6-(trifluoromethyl)imidazo[1,2-a]pyrazine]
21 | – | – | 6.00 to 7.00 | < 5.30 | CC1(O)CCCN(c2ccnc(-c3cnc4cnc(C(F)F)cn34)n2)CC1 (stereo not shown) [IV-90, 1-(2-(6-(Difluoromethyl)imidazo[1,2-a]pyrazin-3-yl)pyrimidin-4-yl)-4-methylazepan-4-ol]
22 | – | – | 6.00 to 7.00 | < 5.30 | OCc1cccc(-c2ccnc(-c3cnc4cnc(C(F)F)cn34)n2)c1 [IV-162, (3-(2-(6-(Difluoromethyl)imidazo[1,2-a]pyrazin-3-yl)pyrimidin-4-yl)phenyl)methanol]
23 | – | – | 6.00 to 7.00 | 5.30 to 6.30 | CCN1CCN(c2ccnc(-c3cnc4cnc(Br)cn34)n2)[C@@H](c2cn[nH]c2)[C@H]1C (relative stereo) [IV-391, Cis-6-Bromo-3-(4-(4-ethyl-3-methyl-2-(1H-pyrazol-4-yl)piperazin-1-yl)pyrimidin-2-yl)imidazo[1,2-a]pyrazine]
24 | – | – | 6.00 to 7.00 | < 5.30 | N#CCc1cccc(-c2ccnc(-c3cnc4cnc(C(F)F)cn34)n2)c1 [IV-157, 2-(3-(2-(6-(Difluoromethyl)imidazo[1,2-a]pyrazin-3-yl)pyrimidin-4-yl)phenyl)acetonitrile]
25 | – | – | 7.00 to 8.00 | 5.30 to 6.30 | CC1C(c2cn[nH]c2)CCN1c1ccnc(-c2cnc3cnc(C(F)(F)F)cn23)n1 (stereo not shown) [IV-688, 3-(4-(2-Methyl-3-(1H-pyrazol-4-yl)pyrrolidin-1-yl)pyrimidin-2-yl)-6-(trifluoromethyl)imidazo[1,2-a]pyrazine]
26 | – | – | 7.00 to 8.00 | 5.30 to 6.30 | CC1CN(c2ccnc(-c3cnc4cnc(C(F)(F)F)cn34)n2)CC(c2cn[nH]c2Cl)N1 (single isomer, unassigned) [IV-652, 3-[4-[3-(5-Chloro-1H-pyrazol-4-yl)-5-methyl-piperazin-1-yl]pyrimidin-2-yl]-6-(trifluoromethyl)imidazo[1,2-a]pyrazine]
27 | – | – | 6.00 to 7.00 | < 5.30 | CC(NS(C)(=O)=O)C1CN(c2ccnc(-c3cnc4cnc(C(F)F)cn34)n2)CCO1 (stereo not shown) [IV-61, N-(1-(4-(2-(6-(Difluoromethyl)imidazo[1,2-a]pyrazin-3-yl)pyrimidin-4-yl)morpholin-2-yl)ethyl)methanesulfonamide]
28 | – | – | 6.00 to 7.00 | < 5.30 | NCC1CCCN(c2ccnc(-c3cnc4cnc(C(F)F)cn34)n2)C1 (stereo not shown) [IV-143, (1-(2-(6-(Difluoromethyl)imidazo[1,2-a]pyrazin-3-yl)pyrimidin-4-yl)piperidin-3-yl)methanamine]
29 | – | – | 6.00 to 7.00 | < 5.30 | CS(=O)(=O)NCc1cccc(-c2ccnc(-c3cnc4cnc(C(F)F)cn34)n2)c1 [IV-146, N-(3-(2-(6-(Difluoromethyl)imidazo[1,2-a]pyrazin-3-yl)pyrimidin-4-yl)benzyl)methanesulfonamide]
